From US10759796B2, “CXCR4 inhibitors and uses thereof” (X4 Pharmaceuticals, Inc., priority 2016, dated 2020)
Read-outs that look alike come from different tables or passages of the source.

Experiment: MTD and pharmacokinetics and brain penetration after PO administration
Type: in vivo, Male C57BL/6 Mice
Settings: male; for Kp / Kp uu: Mouse; for AUC(0-t): C57BL/6
Procedure: Example 30: MTD and Pharmacokinetics and Brain Penetration Experiment to Determine Brain and Plasma Concentration of Compounds after PO Administration to Male C57BL/6 Mice
The study was designed with 2 groups (18 animals and 24 animals) consists of administrating the drug [PO-50, 100, 150, 225, 300 mg/kg via oral gavage] and collecting samples at terminal bleeding for plasma, brain and CSF at 0.25, 0.5, 1, 4, 8, and 24 hr. All PO dosing solutions were prepared in 50 mM citrate buffer (pH 4.0).
The blood collection was performed as follows: the animal was restrained manually at the designated time points, approximately 500 μL of blood sample was collected via cardiac puncture vein into EDTA-2K tubes. The whole blood needed to be divided into two parts; one part was placed in the tube containing EDTA-2K for plasma generation and the other was used for the hematology assay, respectively. The blood samples for plasma generation were maintained in wet ice first and centrifuged to obtain plasma (2000 g, 4° C., 5 min) within 15 minutes post sampling. The brain collection was performed as follows: a mid-line incision was made in the animal's scalp and the skin was retracted. Using small bone cutters and rongeurs, the skull overlying the brain was removed. The brain was removed using a spatula and rinsed with cold saline. The brain was placed in screw-top tubes, and then stored at −70° C. until analysis. The CSF collection was performed as follows: a mid line incision was made on the neck. The muscle under the skin was cut to expose the cisterna magna. The cisterna magna was penetrated with the sharp end of one capillary (Burn one end of capillary to make it sharp). The CSF was sucked spontaneously into the capillary.
Plasma Sample Preparation:
An aliquot of 30 μL sample was added with 100 μL MeCN containing 100 ng/mL IS (Dexamethasone). The mixture was vortexed for 10 min and centrifuged at 5800 rpm for 10 min. An aliquot of 40 μL supernatant was added to 40 μL H2O and the mixture was vortexed for 5 min. An aliquot of 2 μL supernatant was injected for LC-MS/MS analysis.
Brain Sample Preparation:
An aliquot of 30 μL brain homogenate (brain:PBS=1:3, w/v) sample was added to 100 μL MeCN containing 100 ng/mL IS (Dexamethasone). The mixture was vortexed for 10 min and centrifuged at 5800 rpm for 10 min. An aliquot of 40 μL supernatant was added to 40 μL H2O and the mixture was vortexed for 5 min. An aliquot of 2 μL supernatant was injected for LC-MS/MS analysis.
An aliquot of 3 μL sample was added to a mixture of 6 CSF, 9 μL MeOH/H2O (1/1), 40 μL MeCN containing 200 ng/mL IS (Dexamethasone), and 116 μL H2O. The mixture was vortexed for 5 min. An aliquot of 4 μL was injected for LC-MS/MS analysis.
The sample analysis was performed on UPLC-MS/MS-02 (Triple Quad 4000) under the following conditions: positive ion, ESI, MRM detection using dexamethasone as internal standard. HPLC conditions: mobile phase A: H2O-0.1% formic acid, mobile phase B: MeCN-0.1% formic acid on: ACQUITY UPLC HSS T3 (2.1×50 mm, 1.8 μm) at 60° C.

[1] = C57BL/6, brain and plasma, single administration, D1-50 mg/kg PO
[2] = C57BL/6, brain, multiple administration, D5-300 mg/kg PO

SMILES: CN1CCN(c2cccc3nc([C@H]4CCC[C@@H](c5ncccc5Cl)N4)cn23)CC1 (single isomer, unassigned) [Compound I-188]
- Kp [1]: 2.49
- Kp uu [1]: 0.94
- Kp [2]: 5.61
- Kp uu [2]: 2.12
- AUC(0-t) (Mouse brain, multiple administration, D5-300 mg/kg PO, read-out: AUClast (b)): 430000 ng·h/mL
- AUC(0-t) (Mouse brain, single administration, D1-50 mg/kg PO, read-out: AUClast (b)): 58600 ng·h/mL
- AUC(0-t) (Mouse plasma, multiple administration, D5-300 mg/kg PO, read-out: AUClast (p)): 76600 ng·h/mL
- AUC(0-t) (Mouse plasma, single administration, D1-50 mg/kg PO, read-out: AUClast (p)): 23500 ng·h/mL
